Bounds are passed on as bounds.

The results in this text go back to US9951061B2, “CaMKII inhibitors and uses thereof” (Allosteros Therapeutics, Inc., priority 2013, dated 2018).

In this experiment the target is T1, CaMKIIδ (Homo sapiens, UniProt Q13557).
T1 construct: His/Gln tag (C)
The experiment in a line: In vitro CaMKIIδ activity (inhibition) assay, coupled assay measuring ADP released. It is filed as biochemical. The note with it: full length C-terminal His/Gln tagged CaMKIIδ construct, 16 nM; peptide substrate AC3; 25° C. As to the method: An exemplary procedure for the in vitro CaMKIIδ inhibition assay, which can be used to determine the inhibitory action of compounds of the invention toward CaMKII, follows. The procedure is taken from Chao L H, et al., (2010) Nat Struct Mol Biol. 17(3): 264-272, which is incorporated herein by reference in its entirety.
The inhibition of CaMKII activity was evaluated using a coupled assay measuring ADP released following ATP hydrolysis and phosphor-transfer to the peptide substrate AC3 (KKALHRQETVDAL; SEQ ID NO: 1) (1). A full length, C-terminal His/Gln tagged CaMKIIδ construct was used (sequence in Table 2 below).
Compounds were added in 5 uL volume to wells in UV transparent 96-well plates (½ area well size). The final compound concentrations tested ranged from 0.5 nM to 10 uM). Assays were performed in duplicate. CaMKIIδ is added to at a final concentration of 16 nM to a mixture containing 100 mM Tris (pH 7.5), 150 mM KCl, 0.27 mM EGTA, 1.3 mM PEP, 0.2 mg/ml AC3, 6.9% (v/v) PK/LDH mixture (Sigma P0294), 0.38 mM NADH and kept on ice. 72 uL of the enzyme mixture was added to the wells containing compounds and the plate was shaken briefly and kept on ice. The assay was initiated by adding 23 uL of a mixture containing 100 mM Tris (pH 7.5), 150 mM KCl, 1.7 mM CaCl2, 48 mM MgCl2, 0.35 mM ATP and 6.7 ug/mL calmodulin. The rate of ADP released was measured as the rate of absorbance decrease at […] at 25° C. and plotted against the log of the compound concentration (FIG. 1). IC50 data were fitted using GraphPad Prism software.

T1 sequence (Q13557 whole entry, looked up): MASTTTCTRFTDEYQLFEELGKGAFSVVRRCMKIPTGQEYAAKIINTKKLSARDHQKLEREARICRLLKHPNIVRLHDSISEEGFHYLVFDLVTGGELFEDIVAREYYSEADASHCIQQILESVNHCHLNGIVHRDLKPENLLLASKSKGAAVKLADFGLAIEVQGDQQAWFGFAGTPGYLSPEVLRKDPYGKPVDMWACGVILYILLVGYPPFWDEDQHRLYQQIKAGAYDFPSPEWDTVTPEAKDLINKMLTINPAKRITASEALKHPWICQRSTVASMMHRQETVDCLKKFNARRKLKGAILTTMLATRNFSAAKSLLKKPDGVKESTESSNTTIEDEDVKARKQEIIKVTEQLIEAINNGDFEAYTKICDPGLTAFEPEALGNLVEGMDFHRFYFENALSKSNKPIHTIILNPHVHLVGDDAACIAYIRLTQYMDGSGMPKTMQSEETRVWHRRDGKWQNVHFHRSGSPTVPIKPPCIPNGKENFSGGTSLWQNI

The term IC50 denotes the concentration needed to halve the response being measured. Take `c1cc(-c2ccnc3[nH]c4ccccc4c23)cc(N2CCNCC2)c1` [Compound I-1, 4-(3-(piperazin-1-yl)phenyl)-9H-pyrido[2,3-b]indole]: the IC50 is 50 to 250 nM.

`c1cc(-c2ccnc3[nH]c4ccccc4c23)cc(-n2ccnc2)c1` [Compound I-2, 4-(3-(1H-imidazol-1-yl)phenyl)-9H-pyrido[2,3-b]indole]: the IC50 is no less than 1000 nM. The result for `NCc1cccc(-c2ccnc3[nH]c4ccccc4c23)c1` [Compound I-3, (3-(9H-pyrido[2,3-b]indol-4-yl)phenyl)methanamine] reads no less than 1000 nM; that for `N=C(N)Nc1cccc(-c2ccnc3[nH]c4ccccc4c23)c1` [Compound I-4, 1-(3-(9H-pyrido[2,3-b]indol-4-yl)phenyl)guanidine], 50 to 250 nM. The result for `N=C(N)NCc1cccc(-c2ccnc3[nH]c4ccccc4c23)c1` [Compound I-5, 1-(3-(9H-pyrido[2,3-b]indol-4-yl)benzyl)guanidine] reads 250 to 1000 nM. The value for `Nc1cccc(-c2ccnc3[nH]c4ccccc4c23)c1` [Compound I-6, 3-(9H-pyrido[2,3-b]indol-4-yl)aniline] was 50 to 250 nM; that for `NCCNc1cccc(-c2ccnc3[nH]c4ccccc4c23)c1` [Compound I-7, N1-(3-(9H-pyrido[2,3-b]indol-4-yl)phenyl)ethane-1,2-diamine] was no more than 50 nM. In the case of `NCCCNc1cccc(-c2ccnc3[nH]c4ccccc4c23)c1` [Compound I-8, N1-(3-(9H-pyrido[2,3-b]indol-4-yl)phenyl)propane-1,3-diamine], the IC50 is no more than 50 nM. The result for `NCCOc1cccc(-c2ccnc3[nH]c4ccccc4c23)c1` [Compound I-9, 2-(3-(9H-pyrido[2,3-b]indol-4-yl)phenoxy)ethanamine] reads no more than 50 nM; that for `NCCCOc1cccc(-c2ccnc3[nH]c4ccccc4c23)c1` [Compound I-10, 3-(3-(9H-pyrido[2,3-b]indol-4-yl)phenoxy)propan-1-amine], no more than 50 nM.

With `Cc1ccc2c(c1)[nH]c1nccc(-c3cccc(NCCN)c3)c12` [Compound I-11], the IC50 is no more than 50 nM. For the compound `COc1ccc2c(c1)[nH]c1nccc(-c3cccc(NCCN)c3)c12` [Compound I-12, N1-(3-(7-methoxy-9H-pyrido[2,3-b]indol-4-yl)phenyl)ethane-1,2-diamine], the IC50 was no more than 50 nM. The value for `Cc1ccc2[nH]c3nccc(-c4cccc(NCCN)c4)c3c2c1` [Compound I-13, N1-(3-(6-methyl-9H-pyrido[2,3-b]indol-4-yl)phenyl)ethane-1,2-diamine] was no more than 50 nM. The value for `NCCNc1cccc(-c2ccnc3[nH]c4ccc(Cl)cc4c23)c1` [Compound I-14, N1-(3-(6-chloro-9H-pyrido[2,3-b]indol-4-yl)phenyl)ethane-1,2-diamine] was no more than 50 nM.
